According to patent US12662688B2, “Site-selective deuteration of amino acids through dual protein catalysis” (Wisconsin Alumni Research Foundation, priority 2022, dated 2026):

Tests used:
[1] = biological target: T1, DsaE with native E. coli BCATs (Escherichia coli, UniProt P0AB80, E236D); test: Analytical-scale H/D exchange with DsaE lysate only; format: biochemical; conditions: 5% v/v DsaE lysate, no DsaD
T1 construct: DsaE can utilize native BCATs present at biological concentrations (without overexpression) to perform H/D exchange; made in house; host or cells: Clarified lysate of E. coli BL21(DE3) overexpressing DsaE; the BCAT is endogenous to the host
Experimental: (§1) FIG. 7. Deuteration of L-Leu using only DsaE lysate (5% v/v) with minimal H2O contamination (99.9% D). Reactions were performed using the described procedure for analytical-scale H/D exchange. Results are reported as the average of 3 trials.
(§2) In another version, DsaE operates with a BCAT enzyme other than DsaD to effect a Cα/Cβ-exchange. For example, DsaE clarified cell lysates (CCLs) can achieve Cα and Cβ-deuteration without the addition of the aminotransferase DsaD. Instead of relying on DsaD as a partner for catalysis, DsaE promiscuously interacts with native branched-chain amino acid aminotransferases (BCATs) expressed by E. coli (SEQ ID NO: 2) for primary metabolism. No overexpression of BCAT is necessary to induce this activity. We simply overexpressed partner protein DsaE and generated a clarified cell lysate from the resulting E. coli. […] The reaction is as follows:
(§3) General procedure analytical scale deuteration reactions: α/β deuteration reactions were performed as follows. A 1 mL Eppendorf tube was charged with amino acid (10-20 mM final concentration), Na3PO4 buffer pD 8.4 (50 mM final concentration), PLP (100 μM final concentration), purified enzymes or appropriate lysate and D2O and to the appropriate final volume (typically 50 μL). Reactions were carried out at 37° C. for 8 h and quenched by the addition of 3 volumes of acetonitrile. […]

[2] = biological target: T2, DsaE with native E. coli BCATs (Escherichia coli, UniProt P0AB80); test: as above; format: biochemical; conditions: 5% v/v DsaE lysate, no DsaD
T2 construct: DsaE can utilize native BCATs present at biological concentrations (without overexpression) to perform H/D exchange; made in house; host or cells: Clarified lysate of E. coli BL21(DE3) overexpressing DsaE; the BCAT is endogenous to the host
Experimental: as §1, §2, §3

DsaD/E lysates = test: Analytical-scale H/D exchange with pre-dialyzed DsaD and DsaE lysates; format: biochemical, Streptomyces scopuliridis; conditions: lysates pre-dialyzed into D2O—Na3PO4 buffer pD 8.4, 99.9% D
Experimental: FIG. 6. Deuteration of L-Leu under conditions with minimal H2O contamination (99.9% D) using DsaD and DsaE lysates that were pre-dialyzed in 50 mM D2O—Na3PO4 (pD 8.4). Reactions performed using the described procedure for analytical-scale H/D exchange. Results are reported as the average of 3 trials.
(§4) General procedure analytical scale deuteration reactions: α/β deuteration reactions were performed as follows. A 1 mL Eppendorf tube was charged with amino acid (10-20 mM final concentration), Na3PO4 buffer pD 8.4 (50 mM final concentration), PLP (100 μM final concentration), purified enzymes or appropriate lysate and D2O and to the appropriate final volume (typically 50 μL). Reactions were carried out at 37° C. for 8 h and quenched by the addition of 3 volumes of acetonitrile. Precipitated biomolecules were pelleted by centrifugation (16,000×g, 10 min) and samples were processed as described below.
Exchange of DsaD and DsaE into D2O—Na3PO4 buffer system: When necessary, clarified lysates and purified proteins were exchanged into a D2O-based buffer system containing 50 mM Na3PO4 (−) using a Slide-A-Lyzer MINI dialysis device (ThermoFisher) with a 3 KDa cutoff. A maximum of 500 μL of lysate or protein was added to the device and exchanged 3 times into the D2O buffer at 4° C. before setting up reactions.

DsaD-MfnH protein pair = test: Analytical-scale H/D exchange with purified DsaD and MfnH; format: biochemical, Streptomyces scopuliridis; Streptomyces drozdowiczii; conditions: 5 μM DsaD, 50 μM MfnH (1:10 DsaD:MfnH)
Experimental: FIG. 4. Deuteration of L-Leu using purified DsaD (5 μM) and MfnH (50 μM) using the described procedure for analytical-scale H/D exchange. Results are reported as the average of 2 trials.
as §4
In the original report by Li et al. describing DsaE, a homologous enzyme with 42% sequence identity, MfnH, was disclosed.^29 This homolog could operate with DsaD to catalyze Cβ-epimerization of Ile. Here, we test the ability of MfnH to productively catalyze H/D exchange reactions. We performed reactions with purified MfnH, DsaD (1:10 DsaD:MfnH), and L-Leu under the conditions described for DsaD/E-catalyzed reactions (FIG. 4). […] We also attempted isolation of MfnO, the native BCAT partner of MfnH, but produced only apo-enzyme.

T1 sequence (P0AB80 2-309 E236D): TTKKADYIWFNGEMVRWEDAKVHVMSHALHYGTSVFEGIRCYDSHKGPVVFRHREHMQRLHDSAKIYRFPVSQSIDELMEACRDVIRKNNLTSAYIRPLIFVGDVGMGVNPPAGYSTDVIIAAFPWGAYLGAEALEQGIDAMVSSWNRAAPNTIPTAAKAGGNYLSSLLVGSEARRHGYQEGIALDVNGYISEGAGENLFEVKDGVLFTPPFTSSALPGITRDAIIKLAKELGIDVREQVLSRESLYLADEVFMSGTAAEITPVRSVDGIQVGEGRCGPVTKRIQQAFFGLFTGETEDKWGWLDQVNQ
T1 sequence (as listed by the source, stated change not applied): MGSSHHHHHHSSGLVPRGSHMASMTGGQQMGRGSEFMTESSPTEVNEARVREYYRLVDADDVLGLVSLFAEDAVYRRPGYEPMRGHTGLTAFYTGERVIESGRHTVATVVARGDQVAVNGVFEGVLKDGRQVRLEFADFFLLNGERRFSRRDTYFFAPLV
T2 sequence (P0AB80 2-309 E236D): as the sequence (P0AB80 2-309 E236D) above
T2 sequence (as listed by the source, change not shown): as the sequence (as listed by the source, stated change not applied) above

Structure (SMILES): CC(C)C[C@H](N)C(=O)O [Leu, leucine]
- labeling at Cα [1]: > 95%
- deuterium incorporation at Cβ [2]: 70%
- D-incorporation at Cα (DsaD/E lysates): > 99%
- D-incorporation at Cβ (DsaD/E lysates): 98%
- deuterium labeling at Cβ (DsaD-MfnH protein pair): 58%
- exchange at Cα (DsaD-MfnH protein pair): 93%
